Patent US20220242874A1, “CAMPTOTHECIN DERIVATIVES” (SUN PHARMA ADVANCED RESEARCH COMPANY LIMITED, priority 2019, published 2022)
Where a name gives a salt, the structure may show the parent alone. Read-outs that look alike come from different tables or passages of the source.

How the values were obtained:
[1] = Buffer stability (phosphate buffer, 37° C., HPLC); assay type: physicochemical
Method: The representative compounds were first dissolved in a minimum quantity of DMSO in a volumetric flask and diluted up to the mark with diluent (water: acetonitrile 30:70). […] After the elapsed time, the buffer samples were diluted 4 times with acetonitrile and injected into an HPLC system. Quantification of representative compounds was done by HPLC.
HPLC method: Chromatographic separation was achieved on a Hypersil BDS C18 (100×4.6 mm, 5 μ) column using 25 mM KH2PO4 buffer (pH 7 with TEA): acetonitrile, 90:10 v/v as mobile phase-A and 25 mM KH2PO4 buffer (pH 7 with TEA): acetonitrile 30:70 v/v as mobile phase-B. The gradient started with initially 5% B to 45% B in 10 mins followed by 80% B in 22 mins and held up to 25 mins and then returned to initial conditions at 26 mins and continued up to 30 mins. The injection volume was kept 10 μL and the flow rate was kept at 1.0 mL/min. The UV-Vis Detector was set at 220 nm, the column oven was set at 37° C. and the sample cooler was set at […]. Total chromatographic runtime was 30 min.

PANC-1 cells = experiment: In-vitro cancer cell growth inhibition assay (MTT); assay type: cell-based; conditions: Homo sapiens, PANC-1, 96 h, read-out: IC50 (nM) PANC-1
Method: (§1) The compounds of the present invention were evaluated for their ability to inhibit the growth of various cell line models of small cell lung cancer (SCLC), colon cancer, pancreatic cancer and triple negative breast cancer (TNBC) in-vitro. Details of the cell lines and their respective complete growth media are described in Table 3. The growth inhibition assay was carried out as described below. Briefly, cells in complete growth media were seeded in 96-well plates at appropriate cell densities (seeding density details described in Table 3) and incubated at 37° C., 5% CO2 (3-4 hours for NCI-H526, NCI-H69, NCI-H187 and overnight for the rest of the cells). Serial dilutions of test compound in DMSO were added to the cells while maintaining the final DMSO concentration of 0.4%-0.5% in the well. Plates were incubated for 96-144 h (the exact duration for each assay is described in Table 3) at 37° C., 5% CO2. Subsequently, MTT (final concentration 0.5 mg/mL in media) was incubated with the cells at 37° C., 5% CO2 for 4-5 hours. The formazan crystals were dissolved overnight at 37° C., 5% CO2 using 100 μL extractant (10% SDS in 0.01N HCl) and quantified using absorbance at 570 nm with reference wavelength 630 nm. Growth inhibition was represented as percent decrease in absorbance compared to vehicle treated cells.

HT-29 cells = experiment: In-vitro cancer cell growth inhibition assay (MTT); assay type: cell-based; conditions: Homo sapiens, HT-29, 96 h, read-out: IC50 (nM) HT-29
Method: as §1

NCI H526 cells = experiment: In-vitro cancer cell growth inhibition assay (MTT); assay type: cell-based; conditions: Homo sapiens, NCI-H526, 96-144 h, read-out: IC50 (nM) NCI H526
Method: as §1

NCI H69 cells = experiment: In-vitro cancer cell growth inhibition assay (MTT); assay type: cell-based; conditions: Homo sapiens, NCI-H69, 144 h, read-out: IC50 (nM) NCI H69
Method: as §1

NCI H187 cells = experiment: In-vitro cancer cell growth inhibition assay (MTT); assay type: cell-based; conditions: Homo sapiens, NCI-H187, read-out: IC50 (nM) NCI H187
Method: as §1, with “Plates were incubated for 96-144 h (the exact duration for each assay is described in Table 3) at 37° C., 5% CO2.” left out

MDA-MB-231 cells = experiment: In-vitro cancer cell growth inhibition assay (MTT); assay type: cell-based; conditions: Homo sapiens, MDA-MB-231, 96 h, read-out: IC50 (nM) MDA-MB-231
Method: as §1

MDA-MB-468 cells = experiment: In-vitro cancer cell growth inhibition assay (MTT); assay type: cell-based; conditions: Homo sapiens, MDA-MB-468, 96 h, read-out: IC50 (nM) MDA-MB-468
Method: as §1

MX-1 cells = experiment: In-vitro cancer cell growth inhibition assay (MTT); assay type: cell-based; conditions: Homo sapiens, MX1, 144 h, read-out: IC50 (nM) MX-1
Method: as §1

[2] = mouse, 2000 ng/mL, pH 5.5
Method: Aliquot of 100 μL were taken from stability samples in pre-labelled micro-centrifuge tubes. 5 μL of cetirizine working internal standard (5 μg/mL) was added to each tube and vortexed well. 1 mL acetonitrile was added to each tube and vortexed well and then centrifuge at 10000 RPM for 5 min at room temperature. The supernatant was collected in ria vials and evaporated to dryness under nitrogen stream. The samples were reconstituted in 1 mL of 0.1% formic acid in water: acetonitrile 30:70 v/v. The prepared samples were analyzed using LC-MS/MS method. Quantification was done against SN-38 standard, prepared at 2000 ng/mL concentration. SN-38 standard prepared by spiking 5 μL of SN-38 working standard to 95 μL of blank mice tumor homogenate to achieve 2000 ng/mL concentration and vortexed well and processed as described.
LC-MS/MS Method: Chromatographic separation was achieved on Inertsil C8-3 (50×4.6 mm, 5 μ) with a flow rate of 250 μL/min and an injection volume of 10 μL. The sample cooler was maintained at 10° C. The column oven temperature was set to 40° C. The mobile phase consisted of 0.1% formic acid in Milli Q water and acetonitrile in the ratio of 30:70 v/v, respectively. […] The overall chromatographic run time was 4.0 minutes.
Detection was performed by tandem mass spectrometry (TSQ Quantum, Discovery MAX, Thermo Electron Corporation) and peak areas were integrated using LCquan software version 2.9 QF1.
0 hr standard area was considered as 100% for calculation.

Structure (SMILES) | % of Unconverted Compounds of Formula I ([1]; pH 4.7, 0 hr, 200 μg/ml) | % of Unconverted Compounds of Formula I ([1]; pH 4.7, 2 hr, 200 μg/ml) | % of Unconverted Compounds of Formula I ([1]; pH 4.7, 4 hr, 200 μg/ml) | % of Unconverted Compounds of Formula I ([1]; pH 4.7, 6 hr, 200 μg/ml) | % of Unconverted Compounds of Formula I ([1]; pH 4.7, 8 hr, 200 μg/ml) | % of Unconverted Compounds of Formula I ([1]; pH 6.0, 0 hr, 200 μg/ml) | % of Unconverted Compounds of Formula I ([1]; pH 6.0, 2 hr, 200 μg/ml) | % of Unconverted Compounds of Formula I ([1]; pH 6.0, 4 hr, 200 μg/ml) | % of Unconverted Compounds of Formula I ([1]; pH 6.0, 6 hr, 200 μg/ml) | % of Unconverted Compounds of Formula I ([1]; pH 6.0, 8 hr, 200 μg/ml) | % of Unconverted Compounds of Formula I ([1]; pH 7.4, 0 hr, 200 μg/ml) | % of Unconverted Compounds of Formula I ([1]; pH 7.4, 2 hr, 200 μg/ml) | % of Unconverted Compounds of Formula I ([1]; pH 7.4, 4 hr, 200 μg/ml) | % of Unconverted Compounds of Formula I ([1]; pH 7.4, 6 hr, 200 μg/ml) | % of Unconverted Compounds of Formula I ([1]; pH 7.4, 8 hr, 200 μg/ml) | IC50 (PANC-1 cells) | IC50 (HT-29 cells) | IC50 (NCI H69 cells) | IC50 (NCI H187 cells) | further results
CCc1c2c(nc3ccc(O)cc13)-c1cc3c(c(=O)n1C2)COC(=O)[C@@]3(CC)OC(=O)CCCSSCCCC(=O)Nc1ccc(N2CCN(C)CC2)cc1.Cl [Compound I.1, 4-[3-(4-(4-Methylpiperazin-1-yl)phenylcarbamoyl)propyldisulfanyl][(4S)-4,11-diethyl-3,4,12,14-tetrahydro-9-hydroxy-1H-pyrano[3′,4′:6,7]indolizino[1,2-b]quinoline-3,14-(4H,12H)dione-4-yl]butyrate hydrochloride] | 100% | 96.3% | 97.4% | 100.0% | 100% | 100% | 95.4% | 97.1% | 97.2% | 97.1% | 100% | 97.7% | 95.5% | 100.0% | 100% | – | – | – | – | –
CCc1c2c(nc3ccc(O)cc13)-c1cc3c(c(=O)n1C2)COC(=O)[C@@]3(CC)OC(=O)OCCSSCCOC(=O)N(C)c1ccc(N2CCN(C)CC2)cc1.Cl [Compound I.3, 2-(2-{N-Methyl-N-[4-(4-methylpiperazin-1-yl)phenyl]carbamoyloxy}ethyldisulfanyl)ethyl [(4S)-4,11-diethyl-3,4,12,14-tetrahydro-9-hydroxy-1H-pyrano[3′,4′:6,7]indolizino[1,2-b]quinoline-3,14-(4H,12H)dione-4-yl] carbonate hydrochloride] | 100% | 100% | 100% | 100% | 100% | 100% | 93.8% | 97.8% | 98.2% | 100% | 100% | 100% | 100% | 100% | 100% | 862 nM | 43.7 nM | 1.2 nM | 0.68 nM | IC50 (NCI H526 cells): 1.91 nM
CCc1c2c(nc3ccc(O)cc13)-c1cc3c(c(=O)n1C2)COC(=O)[C@@]3(CC)OC(=O)OCCSSCCNC(=O)c1ccc(CN2CCN(C)CC2)cc1 [Compound I.6, 2-(2-{4-[4-Methylpiperazin-1-ylmethyl]benzoylamino}ethyldisulfanyl)ethyl [(4S)-4,11-diethyl-3,4,12,14-tetrahydro-9-hydroxy-1H-pyrano[3′,4′:6,7]indolizino[1,2-b]quinoline-3,14-(4H,12H)dione-4-yl] carbonate dihydrochloride] | – | – | – | – | – | – | – | – | – | – | – | – | – | – | – | 1140 nM | 15.7 nM | 2.3 nM | 0.23 nM | IC50 (MDA-MB-231 cells): 158 nM; IC50 (MDA-MB-468 cells): 13.7 nM; IC50 (MX-1 cells): 5.4 nM; % of Unconverted Compounds of Formula I ([1]; pH 4.7, 0 hr, 100 μg/ml (footnote *)): 100%; % of Unconverted Compounds of Formula I ([1]; pH 4.7, 2 hr, 100 μg/ml (footnote *)): 96.8%; % of Unconverted Compounds of Formula I ([1]; pH 4.7, 4 hr, 100 μg/ml (footnote *)): 89.8%; % of Unconverted Compounds of Formula I ([1]; pH 4.7, 8 hr, 100 μg/ml (footnote *)): 89.0%; % of Unconverted Compounds of Formula I ([1]; pH 6.0, 0 hr, 100 μg/ml (footnote *)): 100%; % of Unconverted Compounds of Formula I ([1]; pH 6.0, 2 hr, 100 μg/ml (footnote *)): 89.9%; % of Unconverted Compounds of Formula I ([1]; pH 6.0, 4 hr, 100 μg/ml (footnote *)): 89.4%; % of Unconverted Compounds of Formula I ([1]; pH 6.0, 6 hr, 100 μg/ml (footnote *)): 82.5%; % of Unconverted Compounds of Formula I ([1]; pH 6.0, 8 hr, 100 μg/ml (footnote *)): 84.3%; % of Unconverted Compounds of Formula I ([1]; pH 7.4, 0 hr, 100 μg/ml (footnote *)): 100%; % of Unconverted Compounds of Formula I ([1]; pH 7.4, 2 hr, 100 μg/ml (footnote *)): 90.7%; % of Unconverted Compounds of Formula I ([1]; pH 7.4, 4 hr, 100 μg/ml (footnote *)): 81.4%; % of Unconverted Compounds of Formula I ([1]; pH 7.4, 6 hr, 100 μg/ml (footnote *)): 83.7%; % of Unconverted Compounds of Formula I ([1]; pH 7.4, 8 hr, 100 μg/ml (footnote *)): 84.6%
CCc1c2c(nc3ccc(OC(=O)N4CCC(N5CCCCC5)CC4)cc13)-c1cc3c(c(=O)n1C2)COC(=O)[C@]3(O)CC [Irinotecan, irinotecan hydrochloride] | – | – | – | – | – | – | – | – | – | – | – | – | – | – | – | – | – | – | – | % Remaining in tumor lysate ([2]; 0 h): 100.0%; Concentration of SN-38 formed from the substance ([2]; 0 h): 0.0 ng/mL; % Remaining in tumor lysate ([2]; 1 h): 110.5%; Concentration of SN-38 formed from the substance ([2]; 1 hr): 9.4 ng/mL; % Remaining in tumor lysate ([2]; 2 h): 95.4%; Concentration of SN-38 formed from the substance ([2]; 2 hr): 17.5 ng/mL; % Remaining in tumor lysate ([2]; 4 h): 93.1%; Concentration of SN-38 formed from the substance ([2]; 4 hr): 22.8 ng/mL; % Remaining in tumor lysate ([2]; 6 h): 82.3%; Concentration of SN-38 formed from the substance ([2]; 6 hr): 25.5 ng/mL; Concentration of SN-38 formed from the substance ([2]; 8 h): 29.6 ng/mL
